Data from patent publication US8097422B2, “Kir channel modulators” (Salk Institute for Biological Studies, priority 2007, dated 2012).
Residue numbers refer to the chain shown, from its start.

What was measured:
[1] = target: T1, GIRK2 channel (wild type) (Mus musculus, UniProt P48542); assay: whole-cell patch clamp, HEK293T cells transfected with GIRK2; assay type: cell-based; conditions: for desensitization of induced GIRK2 current in cells co-transfected with M2R and myristylated-phosducin / activation of wildtype GIRK2, percentage change from Ba++ sensitive basal current: 100 mM alcohols; for desensitization of induced GIRK2 current in cells co-transfected with M2R and myristylated-phosducin: 5 uM Carbachol
T1 construct: expressed in transfected cells; host or cells: HEK293T
T1 sequence (P48542 1-425): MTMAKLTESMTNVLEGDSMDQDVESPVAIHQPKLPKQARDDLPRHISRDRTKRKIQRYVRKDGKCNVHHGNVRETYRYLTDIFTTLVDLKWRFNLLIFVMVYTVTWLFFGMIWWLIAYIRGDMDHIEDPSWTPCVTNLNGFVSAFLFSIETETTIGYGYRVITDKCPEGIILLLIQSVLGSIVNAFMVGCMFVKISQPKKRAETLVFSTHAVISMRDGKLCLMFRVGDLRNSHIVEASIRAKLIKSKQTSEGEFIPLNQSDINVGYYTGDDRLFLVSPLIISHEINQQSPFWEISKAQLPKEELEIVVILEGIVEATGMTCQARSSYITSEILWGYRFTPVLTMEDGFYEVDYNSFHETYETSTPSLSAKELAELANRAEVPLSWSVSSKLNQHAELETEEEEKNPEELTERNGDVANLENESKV
Excerpt: GIRK2c, GIRK4, IRK1, M2R and m-Phosducin were subcloned into PCDNA3.1 vector (Invitrogen). Point mutations were introduced by Quickchange site directed mutagenesis kit (Stratagene). The GIRK2 PIP mutant was generated by overlap-PCR method. Briefly, amino acid 216-NLRKSHL-222 (SEQ ID NO: 25) of IRK1 was swapped into 228-DLRNSHL-234 (SEQ ID NO: 26) of GIRK2, in the region designated βC-βD loop in the crystal structure. Mutations were confirmed by automated DNA sequencing methods.
HEK 293T cells were cultured in DMEM supplemented with 10% FBS, and 1× Glutamax (Invitrogen) in a humidified 37° incubator with 5% CO2. Cells were plated in a 12 well dish, and were transiently transfected using Lipofectamine 2000 (Invitrogen). After 12-24 hrs, cells were re-plated to 12-mm glass coverslips coated with poly-D-Lysine (20 microgram/ml).
HEK293 cells were transfected with 0.2 micrograms of channel cDNA. The cells were co-transfected with 0.04 micrograms of eYFP cDNA to identify transfected cells. 0.8 micrograms of Muscarinic Receptor 2 (M2R) was also co-transfected for experiments with Carbachol. For experiments with and without m-phosducin, 0.8 ug of m-phosducin cDNA was used versus a PCDNA3.1 vector control.
Whole-cell patch clamp recordings were performed 24-72 hrs after transfection. Borosilicate glass electrodes (Warner Instruments) of […] filled with intracellular solution (130 mM KCl, 20 mM NaCl, 5 mM EGTA, 2.56 mM K2ATP, 5.46 mM MgCl2, 0.30 mM Li2GTP, and 10 mM HEPES (pH 7.4)) was used. Membrane currents were recorded using Axopatch 200B (Axon Instruments) amplifier, adjusted electronically for cell capacitance and series resistance (80-100%), filtered at 1 kHz with an 8-pole Bessel filter and digitized at 5 kHz with a Digidata 1200 interface (Axon Instruments). The cells rapidly perfused with a 20 mM K^+ (20K) solution (20 mM KCl, 140 mM NaCl, 0.5 mM CaCl2, 2 mM MgCl2 and 10 mM HEPES (pH7.4)). Alcohols, 5 μM Carbachol, and 1 mM BaCl2 (diluted in 20K solution) were applied from outside the cell with the rapid perfusion system (Warner Instruments). Whole-cell currents were measured using a ramp protocol that holds at −40 mV, steps to −100 mV then ramps to +50 mV and repeats every 2 seconds. Current-voltage relationships also were obtained from the ramp protocol. This protocol was used to measure the inwardly rectifying currents at −100 mV and to ensure stability of recording by monitoring a reversal potential and inward rectification. Current density was measured by dividing inward current at −100 mV by membrane capacitance that was compensated during the recording. Basal currents were measured as the Ba^++ blocked inward currents at −100 mV. Alcohol and Carbachol modulated currents were measured by averaging two consecutive current readings upon reaching steady state, and subtracting the averaged basal current before and after the application of modulator. Pooled data are presented as Mean±SEM and evaluated for statistical significance by a 1-way ANOVA, followed by Bonferroni's multiple comparison post-hoc test.

[2] = target: T2, GIRK2 PIP L257W mutant (Mus musculus, UniProt P48542, D228N/I234L/L257W/M344L/N231K); assay: whole-cell patch clamp, GIRK2 PIP L257W mutant channel; assay type: cell-based; conditions: for inhibition of GIRK2 PIP L257W mutant channel, percentage inhibition: equimolar alcohol series (50 mM); for IC50: dose response, read-out: IC50 for inhibition of GIRK2 PIP L257W mutant
T2 construct: expressed in transfected cells; host or cells: HEK293 / HEK293T
T2 sequence (P48542 1-425 D228N/N231K/I234L/L257W/M344L): T1 sequence (P48542 1-425) with D228N, N231K, I234L, L257W, M344L
Procedure: Point mutations were introduced by Quickchange site directed mutagenesis kit (Stratagene). The GIRK2 PIP mutant was generated by overlap-PCR method. […] Mutations were confirmed by automated DNA sequencing methods. […] Cells were plated in a 12 well dish, and were transiently transfected using Lipofectamine 2000 (Invitrogen). After 12-24 hrs, cells were re-plated to 12-mm glass coverslips coated with poly-D-[…] microgram/ml). […] The cells were co-transfected with 0.04 micrograms of eYFP cDNA to identify transfected cells. 0.8 micrograms of Muscarinic Receptor 2 (M2R) was also co-transfected for experiments with Carbachol. […] Whole-cell patch clamp recordings were performed 24-72 hrs after transfection. […] Alcohols, 5 μM Carbachol, and 1 mM BaCl2 (diluted in 20K solution) were applied from outside the cell with the rapid perfusion system (Warner Instruments). […] Current-voltage relationships also were obtained from the ramp protocol. This protocol was used to measure the inwardly rectifying currents at -100 mV and to ensure stability of recording by monitoring a reversal potential and inward rectification. […] Alcohol and Carbachol modulated currents were measured by averaging two consecutive current readings upon reaching steady state, and subtracting the averaged basal current before and after the application of modulator.

Row | Compound | desensitization of induced GIRK2 current in cells co-transfected with M2R and myristylated-phosducin [1] | activation of wildtype GIRK2, percentage change from Ba++ sensitive basal current ([1]; n=32) [%] | inhibition of GIRK2 PIP L257W mutant channel, percentage inhibition [2] [%] | percent change of basal current, GIRK2 (positive = activation) ([1]; 100 mM MPD, -100 mV, n=5) [%] | concentration inducing a noticeable activation of GIRK currents ([1]; dose response, GIRK2) [mM] | IC50 [2] [mM] | G-protein activation of wildtype GIRK2 by Carbachol, percentage change from basal current ([1]; 5 μM Carbachol, M2R co-transfected, n=32) [%]
1 | CCO [EtOH, ethanol] | no desensitization | 119±5 | −20±2 | – | – | – | –
2 | 1-butanol [1-BuOH] | – | – | −99±3 | – | – | – | –
3 | CC(O)CC(C)(C)O (racemic) [MPD, 2-methyl-2,4-pentanediol] | no desensitization | 305±19 | −84±3 | 246±26.7 | 10 | ~7.7 | –
4 | C[N+](C)(C)CCOC(N)=O [Carbachol] | rapid activation and desensitization | – | – | – | – | – | 928±141
5 | 1-propanol [1-PrOH] | no desensitization | 486±34 | −92±1 | – | – | ~5.1 | –
